Patent US9006442B2, “Cannabinoid receptor modulators” (Lupin Limited, priority 2011, dated 2015)
Where two headings read alike, the source gives them in different places.

What was measured:
[1] = target: T1, human CB1 (Homo sapiens, UniProt P21554); assay: cAMP determination in functional hCB1-HEK stable cells (HTRF); format: cell-based
T1 construct: expressed in transfected cells
Description: In-Vitro Assay Method for Determination of cAMP in Functional hCB1—HEK Stable Cells:
U.S.A), 400 μg/ml of G418 and lx penstrep. For assay, 0.6-1.0×10^6 hCB1-HEK cells were seeded in T-25 flask and grown to mid-log phase in complete culture medium as mentioned above for 2-3 days. One day prior to assay, cell monolayer was washed once with PBS (pH.7.4) and then serum starved for overnight in DMEM medium containing 0.2% bovine serum albumin (devoid of antibiotics, FBS and penstrep). […] The test is performed in 96^1/2 area black well plates. For agonist testing, 20 μl cells/well were mixed with 20 μl of compound and 10 μl of forskolin (with final concentration of 10 μM) and incubated for 40 min at 25° C. incubator. The plates were then processed for cAMP determination using cAMP Femto-2 HTRF kit (Cisbio, Germany) as per the kit manual.

[2] = target: hCB2 (Homo sapiens, UniProt P34972); assay: cAMP determination in functional hCB2-CHO stable cells (HTRF); format: cell-based
Description: In-Vitro Assay Method for Determination of cAMP in Functional hCB2—CHO Stable Cells:
Recombinant CHO-hCB2 cells (procured from Perkin Elmer Inc. USA) were propagated and maintained in Ham's F-12 complete medium containing 10% heat inactivated FBS (Sigma.UK) and 1× penstrep. For assay, 0.1×10^6 to 1.0×10^6 CHO-hCB2 cells were seeded in T-25 flask and grown to mid-log phase in culture media without antibiotics for 2-3 days. […] The test is performed in 96^1/2 area black well plates. For agonist testing, 20 μl cells/well were mixed with 20 μl of sample and 10 μl of forskolin (with final concentration of 10 μM) and incubated for 20 to 40 min at room temperature in incubator. The plate was then processed for the cAMP determination using cAMP Femto-2 HTRF kit (Cisbio, Germany) as per the manual.
The concentration of compound required to stimulate a half-maximal response (EC50) was determined using the GraphPad Prism software (version 5).

[3] = tested on: rats; assay: FCA (Freund's Complete Adjuvant)-induced inflammatory hyperalgesia, paw withdrawal threshold, Dynamic plantar aesthesiometer; format: in vivo; conditions: mechanical hyperalgesia 3 days post-FCA
Description: FCA (Freund's Complete Adjuvant)—Induced Inflammatory Hyperalgesia:
Freund's Complete Adjuvant (FCA), containing heat killed Mycobacterium tuberculosis (2 mg/ml) in incomplete Freund's adjuvant, injected (50 μl) into the plantar region of the paw of rats induces an inflammatory pain. Mechanical hyperalgesia (3 days post-FCA) was assessed by measuring hind paw withdrawal thresholds with Dynamic planter aesthesiometer.

[4] = CHO-hCB2 cells, cAMP, forskolin 10 μM, agonist testing, read-out: EC50 Range

hCB2, sequence (P34972 whole entry): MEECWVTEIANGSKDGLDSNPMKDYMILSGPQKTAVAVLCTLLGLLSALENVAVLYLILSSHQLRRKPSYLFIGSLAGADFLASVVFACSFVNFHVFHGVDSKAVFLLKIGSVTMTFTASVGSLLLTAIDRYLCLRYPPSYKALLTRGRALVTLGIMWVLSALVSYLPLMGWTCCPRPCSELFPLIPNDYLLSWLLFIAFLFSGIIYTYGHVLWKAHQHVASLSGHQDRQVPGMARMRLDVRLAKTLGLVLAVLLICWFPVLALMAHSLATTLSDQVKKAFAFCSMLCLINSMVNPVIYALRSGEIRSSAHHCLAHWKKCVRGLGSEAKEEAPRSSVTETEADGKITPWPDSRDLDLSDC
T1 sequence (P21554 whole entry): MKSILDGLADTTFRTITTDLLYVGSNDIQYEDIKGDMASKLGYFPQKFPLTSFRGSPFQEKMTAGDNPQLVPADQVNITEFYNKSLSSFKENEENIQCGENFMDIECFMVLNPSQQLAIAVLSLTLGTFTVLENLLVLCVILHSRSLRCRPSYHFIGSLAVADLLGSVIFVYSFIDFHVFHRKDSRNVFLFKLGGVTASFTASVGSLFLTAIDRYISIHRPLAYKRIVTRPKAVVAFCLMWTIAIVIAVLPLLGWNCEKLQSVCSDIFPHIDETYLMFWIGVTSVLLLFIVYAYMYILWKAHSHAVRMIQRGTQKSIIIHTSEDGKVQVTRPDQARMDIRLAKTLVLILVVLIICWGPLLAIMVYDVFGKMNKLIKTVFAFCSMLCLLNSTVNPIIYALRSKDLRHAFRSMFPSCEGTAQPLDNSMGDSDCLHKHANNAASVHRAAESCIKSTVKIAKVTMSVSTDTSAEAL

Row | Structure (SMILES) | EC50 [2] | EC50 [2, 4] | further results
1 | Cc1c(Cl)cccc1Nc1ccc(C(=O)N2CCOCC2)c2c(C)cccc12 [Example-155, (4-((3-Chloro-2-methylphenyl)amino)-8-methylnaphthalen-1-yl)(morpholino)methanone] | < 10 nM |  | EC50 [1]: < 100 nM
2 | Cc1cccc2c(Nc3cccc(Cl)c3)ncc(C(=O)N3CCOCC3)c12 [Example-1, (1-((3-Chlorophenyl)amino)-5-methylisoquinolin-4-yl)(morpholino)methanone] | < 10 nM |  | EC50 [1]: > 100 nM
3 | Cc1cccc2c(Nc3cccc(C(F)F)c3)ncc(C(=O)N3CCOCC3)c12 [Example-13, (1-(((3-Difluoromethyl)phenyl)amino)-5-methylisoquinolin-4-yl)(morpholino)methanone] | < 10 nM |  | EC50 [1]: < 100 nM
4 | Cc1cccc2c(Nc3cccc(C(F)(F)F)c3F)ncc(C(=O)N(C)C)c12 [Example-257, 1-((2-Fluoro-3-(trifluoromethyl)phenyl)amino)-N,N,5-trimethyl isoquinolin-4-carboxamide] |  | < 10 nM | % Improvement (MEAN ± S.E.M.) in Paw withdrawal Threshold, 1 h ([3]; dose 30 mg/kg): 44.4 ± 23.3%; % Improvement (MEAN ± S.E.M.) in Paw withdrawal Threshold, 2 h ([3]; dose 30 mg/kg): 52.8 ± 19.1%
5 | Cc1cccc2c(Nc3cccc(Cl)c3)ncc(C(=O)N3CCC(F)(F)CC3)c12 [Example-241, (1-((3-Chlorophenyl)amino)-5-methylisoquinolin-4-yl)(4,4-difluoropiperidin-1-yl)methanone] |  |  | EC50 [1]: < 100 nM
6 | O=C(c1ccc(Nc2cccc(Cl)c2)c2ccccc12)N1CCOCC1 [Example-179, (4-((3-Chlorophenyl)amino)naphthalen-1-yl)(morpholino)methanone] | < 10 nM |  | EC50 [1]: > 100 nM
7 | Cc1cccc2c(Nc3cccc(C(F)(F)F)c3)ccc(C(=O)N3CCCCC3)c12 [Example-143] | < 10 nM |  | % Improvement (MEAN ± S.E.M.) in Paw withdrawal Threshold, 1 h ([3]; dose 10 mg/kg): 16.7 ± 15.0%; % Improvement (MEAN ± S.E.M.) in Paw withdrawal Threshold, 2 h ([3]; dose 10 mg/kg): 25.1 ± 17.8%; % Improvement (MEAN ± S.E.M.) in Paw withdrawal Threshold, 4 h ([3]; dose 10 mg/kg): 18.3 ± 18.5%
8 | Cc1cccc2c(Nc3cccc(C(F)(F)F)c3)ncc(C(=O)N3CCOCC3)c12 [Example-4, (5-Methyl-1-((3-(trifluoromethyl)phenyl)amino)isoquinolin-4-yl)(morpholino)methanone] | < 10 nM |  | % Improvement (MEAN ± S.E.M.) in Paw withdrawal Threshold, 1 h ([3]; dose 10 mg/kg): 60.9 ± 12 %; % Improvement (MEAN ± S.E.M.) in Paw withdrawal Threshold, 2 h ([3]; dose 10 mg/kg): 42.9 ± 8.7 %; % Improvement (MEAN ± S.E.M.) in Paw withdrawal Threshold, 4 h ([3]; dose 10 mg/kg): 43.9 ± 17.4 %
9 | O=C(c1cnc(Nc2cccc(Cl)c2)c2cccc(Cl)c12)N1CCCCC1 [Example-218, (5-Chloro-1-((3-chlorophenyl)amino)isoquinolin-4-yl)(piperidin-1-yl)methanone] |  |  | EC50 [1]: < 100 nM
10 | Cc1cccc2c(Nc3cc(F)cc(F)c3)ncc(CN3CCOCC3)c12 [Example-225, N-(3,5-difluorophenyI)-5-methyl-4-(morpholinomethyl)isoquinolin-1-amine] |  |  | EC50 [1]: < 100 nM
11 | CCc1cccc2c(Nc3cccc(Cl)c3F)ncc(C(=O)N3CCCCC3)c12 [Example-128, (1-((3-Chloro-2-fluorophenyl)amino)-5-ethylisoquinolin-4-yl)(piperidin-1-yl)methanone] | < 10 nM |  | 
12 | Cc1cccc2c(Nc3cccc(C(F)(F)F)c3)ccc(C(=O)N3CCOCC3)c12 [Example-134] | < 10 nM |  | % Improvement (MEAN ± S.E.M.) in Paw withdrawal Threshold, 1 h ([3]; dose 10 mg/kg): 6.8 ± 8.8%; % Improvement (MEAN ± S.E.M.) in Paw withdrawal Threshold, 2 h ([3]; dose 10 mg/kg): 25.8 ± 5.2%; % Improvement (MEAN ± S.E.M.) in Paw withdrawal Threshold, 4 h ([3]; dose 10 mg/kg): −1.6 ± 8.0%
13 | Cc1c(Cl)cccc1Nc1ncc(C(=O)N(C)C(C)C)c2c(Cl)cccc12 [compound 384, 5-Chloro-1-((3-chloro-2-methylphenyl)amino)-N-isopropyl-N-methylisoquinolin-4-carboxamide] | 10 to 1000 nM |  | 
14 | Cc1cccc2c(Oc3ccc(F)cc3Cl)ncc(C(=O)N3CCOCC3)c12 [Example-56, (1-(2-Chloro-4-fluorophenoxy)-5-methylisoquinolin-4-yl)(morpholino)methanone] |  |  | EC50 [1]: > 100 nM
15 | Cc1cccc2c(Nc3cccc(Cl)c3F)ncc(C(=O)N3CC4CC(C3)O4)c12 [Example-61, 6-Oxa-3-azabicyclo[3.1.1]heptan-3-yl(1-((3-chloro-2-fluorophenyl)amino)-5-methylisoquinolin-4-yl)methanone] | < 10 nM |  | 
16 | Cc1cccc2c(Nc3cccc(CF)c3)ncc(C(=O)N3CCCCC3)c12 [Example-37, (1-((3-(Fluoromethyl)phenyl)amino)-5-methylisoquinolin-4-yl)(piperidin-1-yl)methanone] |  | < 10 nM | 

Row | Structure (SMILES) | EC50 [2] | EC50 [2, 4] | further results
17 | Cc1cccc2c(Nc3ccc(F)c(C(F)(F)F)c3)ncc(C(=O)N3CCCCC3)c12 [Example-27, (1-((4-Fluoro-3-(trifluoromethyl)phenyl)amino)-5-methylisoquinolin-4-yl)(piperidin-1-yl)methanone] | < 10 nM |  | 
18 | CCc1cccc2c(Nc3cccc(Cl)c3C)ncc(C(=O)N3CCCCC3)c12 [Example-131, (1-((3-Chloro-2-methylphenyl)amino)-5-ethylisoquinolin-4-yl)(piperidin-1-yl)methanone] |  | < 10 nM | 
19 | Cc1cccc2c(Nc3ccc(F)cc3F)ncc(C(=O)N3CCOCC3)c12 [Example-7, (1-((2,4-Difluorophenyl)amino)-5-methylisoquinolin-4-yl)(morpholino)methanone] |  | 10 to 1000 nM | 
20 | CCN(C)C(=O)c1cnc(Nc2c(F)ccc(F)c2F)c2cccc(Cl)c12 [compound 355, 5-Chloro-N-ethyl-N-methyl-1-((2,3,6-trifluorophenyl)amino) isoquinolin-4-carboxamide] |  | 10 to 1000 nM | 
21 | Cc1cccc2c(Nc3ccc(F)cc3F)ncc(C(=O)N3CCCCC3)c12 [Example-29, (1-((2,4-Difluorophenyl)amino)-5-methylisoquinolin-4-yl)(piperidin-1-yl)methanone] |  | < 10 nM | 
22 | CCN(C)C(=O)c1cnc(Nc2cccc(C(F)(F)F)c2C)c2cccc(Cl)c12 [compound 331, 5-Chloro-N-ethyl-N-methyl-1-((2-methyl-3-(trifluoromethyl)phenyl)amino)isoquinolin-4-carboxamide] | < 10 nM |  | 
23 | CN(C)C(=O)c1cnc(Nc2cccc(C(F)(F)F)c2F)c2cccc(Cl)c12 [compound 330, 5-Chloro-1-((2-fluoro-3-(trifluoromethyl)phenyl)amino)-N,N-dimethylisoquinolin-4-carboxamide] |  | < 10 nM | 
24 | Cc1cc(Nc2ncc(C(=O)N3CCOCC3)c3c(C)cccc23)ccc1F [Example-85, (1-((4-Fluoro-3-methylphenyl)amino)-5-methylisoquinolin-4-yl)(morpholino)methanone] |  | < 10 nM | 
25 | Cc1cccc2c(Nc3cccc(F)c3F)ccc(C(=O)N3CC4CC4C3)c12 (centres unmarked) [Example-166, 3-Azabicyclo[3.1.0]hexan-3-yl(4-((2,3-difluorophenyl)amino)-8-methylnaphthalen-1-yl)methanone] |  | < 10 nM | 
26 | Cc1cccc2c(Nc3cc(F)c(F)cc3F)ncc(C(=O)N3CCCCC3)c12 [Example-28, (1-((2,4,5-Trifluorophenyl)amino)-5-methylisoquinolin-4-yl)(piperidin-1-yl)methanone] |  | < 10 nM | 
27 | CCN(C)C(=O)c1cnc(Nc2cccc(F)c2Cl)c2cccc(Cl)c12 [compound 336, 5-Chloro-1-((2-chloro-3-fluorophenyl)amino)-N-ethyl-N-methyl isoquinolin-4-carboxamide] |  | < 10 nM | 
28 | CCN(CC)C(=O)c1cnc(Nc2cccc(C(F)(F)F)c2C)c2cccc(C)c12 [compound 279, N,N-Diethyl-5-methyl-1-((2-methyl-3-(trifluoromethyl)phenyl)amino) isoquinolin-4-carboxamide] | < 10 nM |  | 
29 | Cc1cccc2c(Nc3ccc(Cl)cc3Cl)ncc(C(=O)N3CCOCC3)c12 [Example-90, (1-((2,4-Dichlorophenyl)amino)-5-methylisoquinolin-4-yl)(morpholino)methanone] |  | < 10 nM | 
30 | Cc1c(Cl)cccc1Nc1ncc(C(=O)N2CCOCC2)c2c(C)cccc12 [Example-87, (1-((3-Chloro-2-methylphenyl)amino)-5-methylisoquinolin-4-yl)(morpholino)methanone] | < 10 nM |  | 
31 | CCc1cccc2c(Nc3cccc(F)c3F)ncc(C(=O)N3CCCCC3)c12 [Example-124, (1-((2,3-Difluorophenyl)amino)-5-ethylisoquinolin-4-yl)(piperidin-1-yl)methanone] |  | < 10 nM | 
32 | CCN(C)C(=O)c1ccc(Nc2cccc(Cl)c2C)c2cccc(C)c12 [compound 456, 4-((3-Chloro-2-methylphenyl)amino)-N-ethyl-N,8-dimethyl-1-naphthamide] |  | < 10 nM | 
